Measurements reported in patent US5620958A, “Bradykinin antagonists” (Coretech, Inc., priority 1994, dated 1997).
pIC50: −log10 of the molar value. Numbered stars: 1 amine (or outer) side, 2 acyl side, 3 side chain; on linkers, the order of the positions; unused ones are H or OH. Bridge positions count the residues as written; N and C are the ends. Square brackets hold non-standard residues; d marks the D form. Peptide text beside a SMILES is read from it. I, II: the chains in the order shown. BMH = O=C1CC([*:1])C(=O)N1CCCCCCN1C(=O)CC([*:2])C1=O; Oic = O=C(O)[C@@H]1C[C@@H]2CCCC[C@@H]2N1; Hyp = O=C(O)[C@@H]1C[C@@H](O)CN1; dTic = O=C(O)[C@H]1Cc2ccccc2CN1

How the values were obtained:
BK2 receptor [1] = target: T1, BK2 receptor (Rattus norvegicus, UniProt P25023); assay: cell-based
T1 sequence (P25023 1-396): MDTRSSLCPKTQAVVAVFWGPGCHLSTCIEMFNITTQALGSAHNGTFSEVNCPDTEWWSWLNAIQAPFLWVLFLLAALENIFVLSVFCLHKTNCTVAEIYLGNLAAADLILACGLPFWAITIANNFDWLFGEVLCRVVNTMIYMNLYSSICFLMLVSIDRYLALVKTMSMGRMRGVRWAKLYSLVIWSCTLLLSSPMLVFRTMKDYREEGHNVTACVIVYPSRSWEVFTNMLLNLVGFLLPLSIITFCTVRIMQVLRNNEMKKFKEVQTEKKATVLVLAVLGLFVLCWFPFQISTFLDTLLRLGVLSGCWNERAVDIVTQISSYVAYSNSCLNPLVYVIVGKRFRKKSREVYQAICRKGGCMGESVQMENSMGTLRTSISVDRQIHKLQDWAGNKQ

BK1 receptor [2] = target: T2, BK1 receptor (Oryctolagus cuniculus, UniProt P48748); assay: blood pressure response to BK1 agonist in LPS-pretreated rabbits; assay type: in vivo, rabbit; conditions: for OBSERVED ANTAGONIST ACTIVITY BK1: rabbits given LPS (10 μg) 20 hours before
T2 construct: when administered to an intact animal; from tissue; host or cells: whole rabbit (systemic arterial blood pressure), LPS-pretreated
T2 sequence (P48748 1-352): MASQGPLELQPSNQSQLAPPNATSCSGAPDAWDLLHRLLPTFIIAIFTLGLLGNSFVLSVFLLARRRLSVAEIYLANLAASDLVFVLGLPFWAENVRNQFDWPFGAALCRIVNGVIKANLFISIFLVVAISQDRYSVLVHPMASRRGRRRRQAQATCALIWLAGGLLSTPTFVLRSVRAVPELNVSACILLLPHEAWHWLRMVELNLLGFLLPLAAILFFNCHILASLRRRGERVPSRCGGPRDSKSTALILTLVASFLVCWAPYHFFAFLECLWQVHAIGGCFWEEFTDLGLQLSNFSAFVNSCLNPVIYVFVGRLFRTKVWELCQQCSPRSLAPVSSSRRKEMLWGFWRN

BK2 receptor [3] = target: T3, BK2 receptor (Oryctolagus cuniculus, UniProt Q28642); assay: blood pressure response to BK2 agonist in LPS-pretreated rabbits; assay type: in vivo, rabbit; set-up: key to OBSERVED ANTAGONIST ACTIVITY BK2: +: indicates complete blockade of the blood pressure response to the appropriate agonist; +/-: indicates partial blockade; -: indicates no observable effect at the dose indicated; conditions: for OBSERVED ANTAGONIST ACTIVITY BK2: rabbits given LPS (10 μg) 20 hours before
T3 construct: when administered to an intact animal; from tissue; host or cells: whole rabbit (systemic arterial blood pressure), LPS-pretreated
T3 sequence (Q28642 1-367): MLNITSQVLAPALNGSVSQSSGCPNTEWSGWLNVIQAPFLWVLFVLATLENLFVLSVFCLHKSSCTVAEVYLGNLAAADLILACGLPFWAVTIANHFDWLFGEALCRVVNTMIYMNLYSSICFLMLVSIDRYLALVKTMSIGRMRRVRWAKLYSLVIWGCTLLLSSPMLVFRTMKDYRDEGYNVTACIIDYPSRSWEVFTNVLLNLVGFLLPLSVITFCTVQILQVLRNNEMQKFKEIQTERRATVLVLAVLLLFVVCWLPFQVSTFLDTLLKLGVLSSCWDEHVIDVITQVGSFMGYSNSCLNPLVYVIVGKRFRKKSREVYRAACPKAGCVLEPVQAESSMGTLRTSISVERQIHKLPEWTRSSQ

BK1 receptor [4] = target: T2, BK1 receptor; assay: rabbit aorta in vitro, reversal of des-Arg^9 -BK contraction; assay type: cell-based; conditions: Table L; negative log of molar concentration
[5] = FIG. 8c, rabbits after endotoxin pretreatment

SMILES	Kb (BK2 receptor [1]) [nM]	OBSERVED ANTAGONIST ACTIVITY BK1 (BK1 receptor [2]; 1 μg kg^-1 min^-1)	OBSERVED ANTAGONIST ACTIVITY BK1 (BK1 receptor [2]; 3 μg kg^-1 min^-1)	OBSERVED ANTAGONIST ACTIVITY BK1 (BK1 receptor [2]; 10 μg kg^-1 min^-1)	block of BK1-mediated hypotensive response (BK1 receptor [2]; [5])	OBSERVED ANTAGONIST ACTIVITY BK2 (BK2 receptor [3]; 1 μg kg^-1 min^-1)	OBSERVED ANTAGONIST ACTIVITY BK2 (BK2 receptor [3]; 3 μg kg^-1 min^-1)	OBSERVED ANTAGONIST ACTIVITY BK2 (BK2 receptor [3]; 10 μg kg^-1 min^-1)	block of BK2-mediated hypotensive response (BK2 receptor [3]; [5])	pIC50 (BK1 receptor [4])
CC(C)C[C@H](NC(=O)[C@@H]1CCCN1C(=O)[C@H](CO)NC(=O)[C@H](Cc1ccccc1)NC(=O)CNC(=O)[C@@H]1C[C@@H](O)CN1C(=O)[C@@H]1CCCN1C(=O)[C@H](CSC1CC(=O)N(CCCCCCN2C(=O)CC(SC[C@H](NC(=O)[C@H](Cc3ccccc3)NC(=O)CNC(=O)[C@@H]3C[C@@H](O)CN3C(=O)[C@@H]3CCCN3C(=O)[C@H](CCCNC(=N)N)NC(=O)[C@H](N)CCCNC(=N)N)C(=O)N[C@H](Cc3ccccc3)C(=O)N[C@@H](CC(C)C)C(=O)N[C@@H](CCCNC(=N)N)C(=O)O)C2=O)C1=O)NC(=O)[C@H](N)CCCNC(=N)N)C(=O)O (stereo partly drawn) [CP-0364] (HELM PEPTIDE1{[dR].R.P.[Hyp].G.F.C.[dF].L.R}|PEPTIDE2{[dR].C.P.[Hyp].G.F.S.P.L}|CHEM1{[O=C1CC([*:1])C(=O)N1CCCCCCN1C(=O)CC([*:2])C1=O]}$PEPTIDE1,CHEM1,7:R3-1:R1|PEPTIDE2,CHEM1,2:R3-1:R2$$$V2.0; N-terminus and C-terminus assumed)	5.01	+	+	+	capable of blocking the response profile to both agonists simultaneously	+	+	+	capable of blocking the response profile to both agonists simultaneously	7.50
N=C(N)NCCC[C@@H](N)C(=O)N[C@@H](CCCNC(=N)N)C(=O)N1CCC[C@H]1C(=O)N1C[C@H](O)C[C@H]1C(=O)NCC(=O)N[C@@H](Cc1ccccc1)C(=O)N[C@@H](CSC1CC(=O)N(CCCCCCN2C(=O)CC(SC[C@H](NC(=O)[C@H](N)CCCNC(=N)N)C(=O)N3CCC[C@H]3C(=O)N3C[C@H](O)C[C@H]3C(=O)NCC(=O)N[C@@H](Cc3ccccc3)C(=O)N[C@@H](CO)C(=O)N3Cc4ccccc4C[C@@H]3C(=O)N3[C@H](C(=O)O)C[C@@H]4CCCC[C@@H]43)C2=O)C1=O)C(=O)N1Cc2ccccc2C[C@@H]1C(=O)N1[C@H](C(=O)N[C@@H](CCCNC(=N)N)C(=O)O)C[C@@H]2CCCC[C@@H]21 (stereo partly drawn) [CP-0365] (I: H-[dR]RP[Hyp]GFC[dTic][Oic]R-OH / II: H-[dR]CP[Hyp]GFS[dTic][Oic]-OH; linker I:7-II:2 via BMH; N-terminus and C-terminus assumed)	3.98	-	+	+		-	+	+		7.40
